For the test, the target named is catalytic domain of human Bub1 (amino acids 704-1085) (Homo sapiens (Human), UniProt O43683). As to the kind of experiment: Bub1 kinase assay (TR-FRET). In kind it is biochemical. The note with it: 10 μM ATP, 1 μM peptide substrate, recombinant catalytic domain of human Bub1, read-out: Bub1 kinase assay median IC50. The source says: Bub1-inhibitory activities of compounds described in the present invention were quantified using a time-resolved fluorescence energy transfer (TR-FRET) kinase assay which measures phosphorylation of the synthetic peptide Biotin-Ahx-VLLPKKSFAEPG (C-terminus in amide form), purchased from e.g. Biosyntan (Berlin, Germany) by the (recombinant) catalytic domain of human Bub1 (amino acids 704-1085), expressed in Hi5 insect cells with an N-terminal His6-tag and purified by affinity- (Ni-NTA) and size exclusion chromatography.
In a typical assay 11 different concentrations of each compound (0.1 nM, 0.33 nM, 1.1 nM, 3.8 nM, 13 nM, 44 nM, 0.15 μM, 0.51 μM, 1.7 μM, 5.9 μM and 20 μM) were tested in duplicate within the same microtiter plate. To this end, 100-fold concentrated compound solutions (in DMSO) were previously prepared by serial dilution (1:3.4) of 2 mM stocks in a clear low volume 384-well source microtiter plate (Greiner Bio-One, Frickenhausen, Germany), from which 50 nl of compounds were transferred into a black low volume test microtiter plate from the same supplier. Subsequently, 2 μl of Bub1 (the final concentration of Bub1 was adjusted depending on the activity of the enzyme lot in order to be within the linear dynamic range of the assay: typically ˜200 ng/ml were used) in aqueous assay buffer [50 mM Tris/HCl pH 7.5, 10 mM magnesium chloride (MgCl2), 200 mM potassium chloride (KCl), 1.0 mM dithiothreitol (DTT), 0.1 mM sodium ortho-vanadate, 1% (v/v) glycerol, 0.01% (w/v) bovine serum albumine (BSA), 0.005% (v/v) Trition X-100 (Sigma), 1× Complete EDTA-free protease inhibitor mixture (Roche)] were added to the compounds in the test plate and the mixture was incubated for 15 min at 22° C. to allow pre-equilibration of the putative enzyme-inhibitor complexes before the start of the kinase reaction, which was initiated by the addition of 3 μl 1.67-fold concentrated solution (in assay buffer) of adenosine-tri-phosphate (ATP, 10 μM final concentration) and peptide substrate (1 μM final concentration). The resulting mixture (5 μl final volume) was incubated at 22° C. during 60 min., and the reaction was stopped by the addition of 5 μl of an aqueous EDTA-solution (50 mM EDTA, in 100 mM HEPES pH 7.5 and 0.2% (w/v) bovine serum albumin) which also contained the TR-FRET detection reagents (0.2 μM streptavidin-XL665 [Cisbio Bioassays, Codolet, France] and 1 nM anti-phosho-Serine antibody [Merck Millipore, cat. #35-002] and 0.4 nM LANCE EU-W1024 labeled anti-mouse IgG antibody [Perkin-Elmer, product no. AD0077, alternatively a Terbium-cryptate-labeled anti-mouse IgG antibody from Cisbio Bioassays can be used]). The stopped reaction mixture was further incubated 1 h at 22° C. in order to allow the formation of complexes between peptides and detection reagents. Subsequently, the amount of product was evaluated by measurement of the resonance energy transfer from the Eu-chelate-antibody complex recognizing the Phosphoserine residue to the streptavidin-XL665 bound to the biotin moiety of the peptide. To this end, the fluorescence emissions at 620 nm and 665 nm after excitation at 330-350 nm were measured in a TR-FRET plate reader, e.g. a Rubystar or Pherastar (both from BMG Labtechnologies, Offenburg, Germany) or a Viewlux (Perkin-Elmer) and the ratio of the emissions (665 nm/622 nm) was taken as indicator for the amount of phosphorylated substrate. The data were normalised using two sets of control wells for high- (=enzyme reaction without inhibitor=0%=Minimum inhibition) and low- (=all assay components without enzyme=100%=Maximum inhibition) Bub1 activity. IC50 values were calculated by fitting the normalized inhibition data to a 4-parameter logistic equation (Minimum, Maximum, IC50, Hill; Y=Max+(Min−Max)/(1+(X/IC50)Hill)).
(In general: Time-resolved FRET reads energy transfer from a long-lived donor to a nearby acceptor.)

pIC50: −log10 of the molar value.

Sequence of catalytic domain of human Bub1 (amino acids 704-1085) (O43683 704-1085): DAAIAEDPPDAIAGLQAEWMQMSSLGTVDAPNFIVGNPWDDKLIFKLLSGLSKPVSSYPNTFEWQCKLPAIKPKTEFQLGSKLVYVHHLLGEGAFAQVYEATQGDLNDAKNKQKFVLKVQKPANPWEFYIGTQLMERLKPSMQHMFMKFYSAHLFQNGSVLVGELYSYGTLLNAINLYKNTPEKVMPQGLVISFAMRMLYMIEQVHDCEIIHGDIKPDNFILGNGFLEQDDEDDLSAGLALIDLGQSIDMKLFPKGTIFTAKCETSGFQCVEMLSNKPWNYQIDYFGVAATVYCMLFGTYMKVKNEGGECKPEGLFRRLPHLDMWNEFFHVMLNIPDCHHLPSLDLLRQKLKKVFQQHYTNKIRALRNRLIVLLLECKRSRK

For orientation: pIC50 means the negative decadic logarithm of the IC50, by convention in mol/L. `O=C1NCCc2[nH]c(-c3ccncc3OCC(F)F)c(Nc3ccc(F)cc3)c21` [Example 42, 2-[3-(2,2-difluoroethoxy)pyridin-4-yl]-3-[(4-fluorophenyl)amino]-1,5,6,7-tetrahydro-4H-pyrrolo[3,2-c]pyridin-4-one]: the pIC50 is 6.95. As for `O=C1NCCc2[nH]c(-c3ccncc3OCC(F)F)c(Nc3ccc(F)c(F)c3)c21` [Example 43, 2-[3-(2,2-difluoroethoxy)pyridin-4-yl]-3-[(3,4-difluorophenyl)amino]-1,5,6,7-tetrahydro-4H-pyrrolo[3,2-c]pyridin-4-one], the pIC50 is 6.87. Consider `COCCOc1cnccc1-c1[nH]c2c(c1Nc1ccc(F)c(F)c1)C(=O)NCC2` [Example 45, 3-[(3,4-difluorophenyl)amino]-2-[3-(2-methoxyethoxy)pyridin-4-yl]-1,5,6,7-tetrahydro-4H-pyrrolo[3,2-c]pyridin-4-one], for which the pIC50 is 7.55. With `COCCOc1cnccc1-c1[nH]c2c(c1Nc1ccc(F)cc1)C(=O)NCC2` [Example 46, 3-[(4-fluorophenyl)amino]-2-[3-(2-methoxyethoxy)pyridin-4-yl]-1,5,6,7-tetrahydro-4H-pyrrolo[3,2-c]pyridin-4-one], the pIC50 was 7.48.

`COCCOc1cnccc1-c1[nH]c2c(c1Nc1cccc(F)c1)C(=O)NCC2` [Example 47, 3-[(3-fluorophenyl)amino]-2-[3-(2-methoxyethoxy)pyridin-4-yl]-1,5,6,7-tetrahydro-4H-pyrrolo[3,2-c]pyridin-4-one]: the negative logarithm of the IC50 (pIC50) was 7.71.

Values taken from patent publication US10428063B2 (Bayer Pharma Aktiengesellschaft, priority 2015, dated 2019).
